The values below are quoted from earlier work in patent publication US5869086A, “Systems for the controlled release of pilocarpine” (LTS Lohmann Therapie-Systeme GmbH, priority 1993, dated 1999).

Data set [1] relates to postganglionic, parasympathetic acetylcholine receptors. The conditions noted are these: textbook.
For another data set, the system named is adults. The note with it: systemic, single maximum dose for adults; German Federal Board of Health.
The test system of data set [2] is patients suffering from glaucoma (eye). The conditions noted are these: applied to the eye.

With `CC[C@@H]1C(=O)OC[C@@H]1Cc1cncn1C` [pilocarpine, (3S, 4R)-3-ethyl-4,5-dihydro-4-(1-methyl-1H-imidazole-5-ylmethyl)-2(3H)-furanone], the “hazard of high systemic doses” value with heart (high doses, effect on the heart) is “hazardous to patients' life and health”. The “impairment of the heart function compared with carbachol” value in the data set on heart (textbook, general application) was “impairment of the heart function is more distinct”. Besides, the “action on acetylcholine receptors” value in data set [1] is listed as “specifically stimulates the postganglionic, parasympathetic acetylcholine receptors”. Also, the “dosage at which risks are likely to arise” value with adults is on record as “below 20 mg”. Moreover, the “duration of one application” value in data set [2] is 4 to 6 h.
